Measured values from patent publication US12495798B2, “Nicotinamide compound and herbicidal composition comprising compound” (KOREA RESEARCH INSTITUTE OF CHEMICAL TECHNOLOGY, priority 2019, dated 2025).

Assays:
Format in all cases: in vivo
bindweed = assay: Herbicidal activity test against upland field weeds (foliar treatment test); details: 50 g ai/ha, scale 0-100
How it was run: (§1)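 Weeds were raised from seed or rootstocks in horticultural soil in a greenhouse (30±5° C., 14/10 h light/dark), then foliage was hand-sprayed with compound at 50 or 75 g a.i./ha in 50% acetone with 0.1% Tween-20. Control was scored visually 0–100 against untreated plants after 14 days, or 21 if needed.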

quack grass = assay: as above; parameters: key to Foliar treatment herbicidal activity, quack grass: 0 (no control); 100 (complete control); details: 50 g ai/ha, scale 0-100
How it was run: as §1

crabgrass = assay: as above; details: Digitaria sanguinalis, 50 g ai/ha, scale 0-100
How it was run: as §1

wheat = assay: Phytotoxicity test for field crops (soil treatment test); parameters: key: 0 (no harm); 9 (complete withered)
Method: (§2) Experimental Example 4: Phytotoxicity Test for Field Crops (Soil Treatment Test)
(§3) Soil treatment was performed for sown crops and weeds in a square plastic pot having a surface area of 50 cm^2 filled with sterilized horticultural soil (pH 6.1, organic material 1.0%, clay 21%, silt 17%, sand 52%). As a fertilizer per pot, 0.5 g of horticultural mixed fertilizer (N:P:K=17:21:17) was treated by mixing with soil. Five kinds of crops such as rice, wheat, corn, soybean, and cotton were sown in each pot. One day after sowing, test compound solutions were made by diluting with the diluent (33% acetone, 0.1% Tween-20) so that the final treatment amount of the test compounds was 19˜300 g a.i./ha. The prepared test compound solutions were treated using a spray booth (SB6-016) at a treatment amount of 100 ml per 1 m^2 of treatment area. The treated crops were managed in greenhouse conditions (average temperature 30±5° C., light/dark=14/10 hours). External symptoms and phytotoxicity were visually investigated 10 and 20 days after treatment. In the evaluation of the phytotoxicity for the crop, the grade of 0 (no harm) to 9 (complete withered) was used. The results of Table 10 were obtained by evaluating phytotoxicity value to the untreated control.

corn = assay: as above; parameters: key: 0 (no harm); 9 (complete withered)
Method: as §2, §3

rice = assay: as above; parameters: key: 0 (no harm); 9 (complete withered)
Method: as §2, §3

cotton = assay: as above; parameters: key: 0 (no harm); 9 (complete withered)
Method: as §2, §3

velvetleaf = assay: Herbicidal activity test against upland field weeds (foliar treatment test); details: Abutilon theophrasti, 50 g ai/ha, scale 0-100, read-out: Foliar treatment herbicidal activity, velvet leaf
How it was run: as §1

soybean = assay: Phytotoxicity test for field crops (soil treatment test); parameters: key: 0 (no harm); 9 (complete withered)
Method: as §2, §3

[1] = 50 g ai/ha, Wheat (10 days after treatment)
[2] = 50 g ai/ha, Wheat (20 days after treatment)
[3] = 100 g ai/ha, Wheat (10 days after treatment)
[4] = 100 g ai/ha, Wheat (20 days after treatment)
[5] = 50 g ai/ha, Corn (10 days after treatment)
[6] = 50 g ai/ha, Corn (20 days after treatment)
[7] = 100 g ai/ha, Corn (10 days after treatment)
[8] = 100 g ai/ha, Corn (20 days after treatment)
[9] = 50 g ai/ha, Rice (10 days after treatment)
[10] = 50 g ai/ha, Rice (20 days after treatment)
[11] = 100 g ai/ha, Rice (10 days after treatment)
[12] = 100 g ai/ha, Rice (20 days after treatment)
[13] = 50 g ai/ha, Cotton (10 days after treatment)
[14] = 50 g ai/ha, Cotton (20 days after treatment)
[15] = 100 g ai/ha, Cotton (10 days after treatment)
[16] = 100 g ai/ha, Cotton (20 days after treatment)
[17] = 50 g ai/ha, Soybean (20 days after treatment)
[18] = 100 g ai/ha, Soybean (20 days after treatment)
[19] = 50 g ai/ha, Soybean (10 days after treatment)
[20] = 100 g ai/ha, Soybean (10 days after treatment)

For `Cc1nc(COCc2nc(C(F)(F)F)ccc2C(=O)Nc2nnnn2C)nn1C` [Compound No. 2-116, 2-(((1,5-dimethyl-1H-1,2,4-triazol-3-yl)methoxy)methyl)-N-(1-methyl-1H-tetrazol-5-yl)-6-(trifluoromethyl)nicotinamide], the pest or weed control at 50 g/ha (bindweed) was 90%, the “Foliar treatment herbicidal activity, quack grass” value (quack grass) was 0 and the pest or weed control at 50 g/ha (crabgrass) was 80%. The “Soil treatment phytotoxicity, Wheat” value (wheat; [1]) was 0, the “Soil treatment phytotoxicity, Wheat” value (wheat; [2]) was 2 and the “Soil treatment phytotoxicity, Wheat” value (wheat; [3]) was 0. The “Soil treatment phytotoxicity, Wheat” value (wheat; [4]) was 0, the “Soil treatment phytotoxicity, Corn” value (corn; [5]) was 1 and the “Soil treatment phytotoxicity, Corn” value (corn; [6]) was 4. For the same compound, the “Soil treatment phytotoxicity, Corn” value (corn; [7]) was 1, the “Soil treatment phytotoxicity, Corn” value (corn; [8]) was 3 and the “Soil treatment phytotoxicity, Rice” value (rice; [9]) was 0. For the same compound, the “Soil treatment phytotoxicity, Rice” value (rice; [10]) was 3, the “Soil treatment phytotoxicity, Rice” value (rice; [11]) was 0 and the “Soil treatment phytotoxicity, Rice” value (rice; [12]) was 2. For the same compound, the “Soil treatment phytotoxicity, Cotton” value (cotton; [13]) was 1, the “Soil treatment phytotoxicity, Cotton” value (cotton; [14]) was 3 and the “Soil treatment phytotoxicity, Cotton” value (cotton; [15]) was 1. The “Soil treatment phytotoxicity, Cotton” value (cotton; [16]) was 2 and the pest or weed control at 50 g/ha (velvetleaf) was 90%.
In the case of `Cn1nnc(CSCc2nc(C(F)(F)F)ccc2C(=O)N(c2nnnn2C)S(C)(=O)=O)n1` [Compound No. 2-110, N-(1-methyl-1H-tetrazol-5-yl)-2-((((2-methyl-2H-tetrazol-5-yl)methyl)thio)methyl)-N-(methylsulfonyl)-6-(trifluoromethyl)nicotinamide], the pest or weed control at 50 g/ha (bindweed) was 98%, the “Foliar treatment herbicidal activity, quack grass” value (quack grass) was 0 and the pest or weed control at 50 g/ha (crabgrass) was 70%. The “Soil treatment phytotoxicity, Wheat” value (wheat; [1]) was 0, the “Soil treatment phytotoxicity, Wheat” value (wheat; [2]) was 0 and the “Soil treatment phytotoxicity, Wheat” value (wheat; [3]) was 0. For the same compound, the “Soil treatment phytotoxicity, Wheat” value (wheat; [4]) was 0, the “Soil treatment phytotoxicity, Corn” value (corn; [5]) was 0 and the “Soil treatment phytotoxicity, Corn” value (corn; [6]) was 0. The “Soil treatment phytotoxicity, Corn” value (corn; [7]) was 0, the “Soil treatment phytotoxicity, Corn” value (corn; [8]) was 0 and the “Soil treatment phytotoxicity, Soybean” value (soybean; [17]) was 0. The “Soil treatment phytotoxicity, Soybean” value (soybean; [18]) was 0, the “Soil treatment phytotoxicity, Rice” value (rice; [9]) was 0 and the “Soil treatment phytotoxicity, Rice” value (rice; [10]) was 0. For the same compound, the “Soil treatment phytotoxicity, Rice” value (rice; [11]) was 0, the “Soil treatment phytotoxicity, Rice” value (rice; [12]) was 0 and the “Soil treatment phytotoxicity, Cotton” value (cotton; [13]) was 0. For the same compound, the “Soil treatment phytotoxicity, Cotton” value (cotton; [14]) was 0, the “Soil treatment phytotoxicity, Cotton” value (cotton; [15]) was 0 and the “Soil treatment phytotoxicity, Cotton” value (cotton; [16]) was 0. The pest or weed control at 50 g/ha (velvetleaf) was 80%.
With `Cc1nc(COCc2nc(C(F)(F)F)ccc2C(=S)Nc2nnnn2C)nn1C` [Compound No. 2-117, 2-(((1,5-dimethyl-1H-1,2,4-triazol-3-yl)methoxy)methyl)-N-(1-methyl-1H-tetrazol-5-yl)-6-(trifluoromethyl)pyridin-3-carbothioamide] the pest or weed control at 50 g/ha (bindweed) was 70%, the “Foliar treatment herbicidal activity, quack grass” value (quack grass) was 0 and the pest or weed control at 50 g/ha (crabgrass) was 95%. For the same compound, the “Soil treatment phytotoxicity, Wheat” value (wheat; [1]) was 0, the “Soil treatment phytotoxicity, Wheat” value (wheat; [2]) was 0 and the “Soil treatment phytotoxicity, Wheat” value (wheat; [3]) was 0. The “Soil treatment phytotoxicity, Wheat” value (wheat; [4]) was 0, the “Soil treatment phytotoxicity, Corn” value (corn; [5]) was 1 and the “Soil treatment phytotoxicity, Corn” value (corn; [6]) was 3. For the same compound, the “Soil treatment phytotoxicity, Corn” value (corn; [7]) was 2, the “Soil treatment phytotoxicity, Corn” value (corn; [8]) was 2 and the “Soil treatment phytotoxicity, Rice” value (rice; [9]) was 0. The “Soil treatment phytotoxicity, Rice” value (rice; [10]) was 2, the “Soil treatment phytotoxicity, Rice” value (rice; [11]) was 0 and the “Soil treatment phytotoxicity, Rice” value (rice; [12]) was 3. The “Soil treatment phytotoxicity, Cotton” value (cotton; [13]) was 0, the “Soil treatment phytotoxicity, Cotton” value (cotton; [14]) was 9 and the “Soil treatment phytotoxicity, Cotton” value (cotton; [15]) was 0. The “Soil treatment phytotoxicity, Cotton” value (cotton; [16]) was 9 and the pest or weed control at 50 g/ha (velvetleaf) was 90%.
For `Cn1nc(COCc2nc(C(F)(F)F)ccc2C(=O)Nc2nnnn2C)nc1Br` [Compound No. 2-136, 2-(((5-bromo-1-methyl-1H-1,2,4-triazol-3-yl)methoxy)methyl)-N-(1-methyl-1H-tetrazol-5-yl)-6-(trifluoromethyl)nicotinamide], the pest or weed control at 50 g/ha (bindweed) was 50%, the “Foliar treatment herbicidal activity, quack grass” value (quack grass) was 0 and the pest or weed control at 50 g/ha (crabgrass) was 60%. For the same compound, the “Soil treatment phytotoxicity, Wheat” value (wheat; [1]) was 0, the “Soil treatment phytotoxicity, Wheat” value (wheat; [2]) was 0 and the “Soil treatment phytotoxicity, Wheat” value (wheat; [3]) was 0. For the same compound, the “Soil treatment phytotoxicity, Wheat” value (wheat; [4]) was 0, the “Soil treatment phytotoxicity, Corn” value (corn; [5]) was 0 and the “Soil treatment phytotoxicity, Corn” value (corn; [6]) was 0. For the same compound, the “Soil treatment phytotoxicity, Corn” value (corn; [7]) was 0, the “Soil treatment phytotoxicity, Corn” value (corn; [8]) was 0 and the “Soil treatment phytotoxicity, Soybean” value (soybean; [19]) was 0. For the same compound, the “Soil treatment phytotoxicity, Soybean” value (soybean; [17]) was 0, the “Soil treatment phytotoxicity, Rice” value (rice; [9]) was 3 and the “Soil treatment phytotoxicity, Rice” value (rice; [10]) was 4. For the same compound, the “Soil treatment phytotoxicity, Rice” value (rice; [11]) was 4, the “Soil treatment phytotoxicity, Rice” value (rice; [12]) was 7 and the “Soil treatment phytotoxicity, Cotton” value (cotton; [13]) was 0. The “Soil treatment phytotoxicity, Cotton” value (cotton; [14]) was 0, the “Soil treatment phytotoxicity, Cotton” value (cotton; [15]) was 1 and the “Soil treatment phytotoxicity, Cotton” value (cotton; [16]) was 0. It also gave a pest or weed control at 50 g/ha (velvetleaf) of 40%.
`CON(Cc1nnn(C)n1)Cc1nc(C(F)(F)F)ccc1C(=O)Nc1nnnn1C` [Compound No. 2-97, 2-((methoxy((2-methyl-2H-tetrazol-5-yl)methyl)amino)methyl)-N-(1-methyl-1H-tetrazol-5-yl)-6-(trifluoromethyl)nicotinamide] was tested, and the pest or weed control at 50 g/ha (bindweed) was 80%, the “Foliar treatment herbicidal activity, quack grass” value (quack grass) was 0 and the pest or weed control at 50 g/ha (crabgrass) was 95%. For the same compound, the “Soil treatment phytotoxicity, Wheat” value (wheat; [1]) was 0, the “Soil treatment phytotoxicity, Wheat” value (wheat; [2]) was 0 and the “Soil treatment phytotoxicity, Wheat” value (wheat; [3]) was 0. For the same compound, the “Soil treatment phytotoxicity, Corn” value (corn; [5]) was 0, the “Soil treatment phytotoxicity, Corn” value (corn; [6]) was 0 and the “Soil treatment phytotoxicity, Corn” value (corn; [7]) was 1. The “Soil treatment phytotoxicity, Corn” value (corn; [8]) was 0, the “Soil treatment phytotoxicity, Soybean” value (soybean; [19]) was 0 and the “Soil treatment phytotoxicity, Soybean” value (soybean; [17]) was 0. For the same compound, the “Soil treatment phytotoxicity, Soybean” value (soybean; [20]) was 0, the “Soil treatment phytotoxicity, Soybean” value (soybean; [18]) was 0 and the “Soil treatment phytotoxicity, Rice” value (rice; [9]) was 7. The “Soil treatment phytotoxicity, Rice” value (rice; [10]) was 9, the “Soil treatment phytotoxicity, Rice” value (rice; [11]) was 9 and the “Soil treatment phytotoxicity, Rice” value (rice; [12]) was 9. For the same compound, the “Soil treatment phytotoxicity, Cotton” value (cotton; [13]) was 1, the “Soil treatment phytotoxicity, Cotton” value (cotton; [14]) was 7 and the “Soil treatment phytotoxicity, Cotton” value (cotton; [15]) was 4. The “Soil treatment phytotoxicity, Cotton” value (cotton; [16]) was 8 and the pest or weed control at 50 g/ha (velvetleaf) was 95%.
In the case of `Cn1nc(COCc2nc(C(F)(F)F)ccc2C(=O)Nc2nnnn2C)nc1C#N` [Compound No. 2-134, 2-(((5-cyano-1-methyl-1H-1,2,4-triazol-3-yl)methoxy)methyl)-N-(1-methyl-1H-tetrazol-5-yl)-6-(trifluoromethyl)nicotinamide], the pest or weed control at 50 g/ha (bindweed) was 98%, the pest or weed control at 50 g/ha (quack grass) was 10% and the pest or weed control at 50 g/ha (crabgrass) was 80%. For the same compound, the “Soil treatment phytotoxicity, Wheat” value (wheat; [1]) was 0, the “Soil treatment phytotoxicity, Wheat” value (wheat; [2]) was 0 and the “Soil treatment phytotoxicity, Wheat” value (wheat; [3]) was 0. For the same compound, the “Soil treatment phytotoxicity, Wheat” value (wheat; [4]) was 0, the “Soil treatment phytotoxicity, Corn” value (corn; [5]) was 0 and the “Soil treatment phytotoxicity, Corn” value (corn; [6]) was 0. The “Soil treatment phytotoxicity, Corn” value (corn; [7]) was 0, the “Soil treatment phytotoxicity, Corn” value (corn; [8]) was 0 and the “Soil treatment phytotoxicity, Soybean” value (soybean; [19]) was 0. For the same compound, the “Soil treatment phytotoxicity, Soybean” value (soybean; [17]) was 0, the “Soil treatment phytotoxicity, Soybean” value (soybean; [20]) was 0 and the “Soil treatment phytotoxicity, Soybean” value (soybean; [18]) was 0. The “Soil treatment phytotoxicity, Rice” value (rice; [9]) was 1, the “Soil treatment phytotoxicity, Rice” value (rice; [10]) was 1 and the “Soil treatment phytotoxicity, Rice” value (rice; [11]) was 5. For the same compound, the “Soil treatment phytotoxicity, Rice” value (rice; [12]) was 4, the “Soil treatment phytotoxicity, Cotton” value (cotton; [13]) was 0 and the “Soil treatment phytotoxicity, Cotton” value (cotton; [14]) was 1. The “Soil treatment phytotoxicity, Cotton” value (cotton; [15]) was 0, the “Soil treatment phytotoxicity, Cotton” value (cotton; [16]) was 2 and the pest or weed control at 50 g/ha (velvetleaf) was 60%.
